Data: patent US20130164259A1, “1,4-S[…] DERIVATIVES AND METHODS OF USE THEREOF” (priority 2009, published 2013)

target: T1, HCV NS5B polymerase (NS5BΔCT21) (Hepatitis C virus genotype 1b, UniProt Q9WMX2); test: HCV NS5B Polymerase Inhibition Assay; assay type: biochemical, HCV-Con 1 isolate
T1 construct: A soluble C-terminal 21-amino acid truncated NS5B enzyme form; polyhistidine (C); made in house; host or cells: Escherichia coli
Excerpt: A chemically synthesized 75-mer version, designated DCoH75, whose sequence matches the 3′-end of D-RNA, and DCoH75ddC, where the 3′-terminal cytidine of DCoH75 is replaced by dideoxycytidine, were used for assaying the NS5B enzyme activity as described in Ferrari et al., 12th International Symposium on HCV and Related Viruses, P-306 (2005). The sequence of the template RNA was: 5′-UGUGCCGGUCUUUCUGAACGGGAUAUAAACCUGGCCAGCUUCAUCGAACAAGUUGCCGUGUCUAUGACAUAGAUC-3′ (SEQ ID NO: 1). A soluble C-terminal 21-amino acid truncated NS5B enzyme form (NS5BΔCT21, from HCV-Con 1 isolate, genotype 1b, Genbank accession number AJ238799) was produced and purified from Escherichia coli as C-terminal polyhistidine-tagged fusion protein as described in Ferrari et al., J. Virol. 73:1649-1654 (1999). A typical assay contained 20 mM Hepes pH 7.3, 10 mM MgCl2, 60 mM NaCl, 100 μg/ml BSA, 20 units/ml RNasin, 7.5 mM DTT, 0.1 μM ATP/GTP/UTP, 0.026 μM CTP, 0.25 mM GAU, 0.03 μM RNA template, 20 μCi/ml [^33P]-CTP, 2% DMSO, and 30 or 150 nM NS5B enzyme. Reactions were incubated at 22° C. for 2 hours, then stopped by adding 150 mM EDTA, washed in DE81 filter plate in 0.5M di-basic sodium phosphate buffer, pH 7.0, and counted using Packard TopCount after the addition of scintillation cocktail. Polynucleotide synthesis was monitored by the incorporation of radiolabeled CTP. The effect of the Compounds of Formula (I) on the polymerase activity was evaluated by adding various concentrations of a Compound of Formula (I), typically in 10 serial 2-fold dilutions, to the assay mixture. The starting concentrations ranged from 200 μM to 1 μM. An IC50 value for the inhibitor, defined as the compound concentration that provides 50% inhibition of polymerase activity, was determined by fitting the cpm data to the Hill equation Y=100/(1+10̂((LogIC50−X)*HillSlope)), where X is the logarithm of compound concentration, and Y is the % inhibition. Ferrari et al., 12th International Symposium on HCV and Related Viruses, P-306 (2005) described in detail this assay procedure. It should be noted that such an assay as described is exemplary and not intended to limit the scope of the invention. The skilled practitioner can appreciate that modifications including but not limited to RNA template, primer, nucleotides, NS5B polymerase form, buffer composition, can be made to develop similar assays that yield the same result for the efficacy of the compounds and compositions described in the invention.
NS5B polymerase inhibition data was calculated for the compounds of the present invention using this method and is set forth in the table below.

Q: Which IC50 does the source give for `CC(C)c1ccc(NC(=O)c2cccnc2)c(N2CCN(c3cnccn3)CC2)c1` [Compound 1] here?
A: 3 µM

Q: `Cc1ncccc1C(=O)Nc1ccc(C(C)C)cc1N1CCN(c2cnccn2)CC1` [Compound 2] was tested. Which IC50 did it give?
A: 0.52 µM

Q: With `CC(C)c1ccc(NC(=O)c2cccnc2C2CC2)c(N2CCN(c3cnccn3)CC2)c1` [Compound 3] as the molecule, how does the IC50 read?
A: 2 µM

Q: How did the IC50 turn out when `C=C(C)c1ncccc1C(=O)Nc1ccc(C(C)C)cc1N1CCN(c2cnccn2)CC1` [Compound 4] was run?
A: > 200 µM

Q: For `CC(C)c1ccc(NC(=O)c2cccnc2-c2ccccc2)c(N2CCN(c3cnccn3)CC2)c1` [Compound 5], which IC50 is on record?
A: > 200 µM

Q: `CC(C)c1ccc(NC(=O)c2cccnc2F)c(N2CCN(c3cnccn3)CC2)c1` [Compound 6] was tested. Which IC50 did it give?
A: 2.2 µM

Q: `CC(C)c1ccc(NC(=O)c2cccnc2C(F)(F)F)c(N2CCN(c3cnccn3)CC2)c1` [Compound 7] was tested. Which IC50 did it give?
A: 2.3 µM

Q: For `CC(C)c1ccc(NC(=O)c2cccnc2N)c(N2CCN(c3cnccn3)CC2)c1` [Compound 8], which IC50 is on record?
A: 1 µM

Q: `CC(C)c1ccc(NC(=O)c2cccc(O)n2)c(N2CCN(c3cnccn3)CC2)c1` [Compound 9] was tested. Which IC50 did it give?
A: 46 µM

Q: Which IC50 does the source give for `CC(C)c1ccc(NC(=O)c2cccnc2O)c(N2CCN(c3cnccn3)CC2)c1` [Compound 10] here?
A: 3 µM

Q: How did the IC50 turn out when `COc1ncccc1C(=O)Nc1ccc(C(C)C)cc1N1CCN(c2cnccn2)CC1` [Compound 11] was run?
A: > 20 µM

Q: For `CC(C)c1ccc(NC(=O)c2cccc(F)c2)c(N2CCN(c3cnccn3)CC2)c1` [Compound 12], which IC50 is on record?
A: 1 µM

Q: With `Cc1c(F)cccc1C(=O)Nc1ccc(C(C)C)cc1N1CCN(c2cnccn2)CC1` [Compound 13] as the molecule, how does the IC50 read?
A: 4.1 µM

Q: For `Cc1c(F)cc(F)cc1C(=O)Nc1ccc(C(C)C)cc1N1CCN(c2cnccn2)CC1` [Compound 14], which IC50 is on record?
A: 0.54 µM

Q: `Cc1c(F)ccc(F)c1C(=O)Nc1ccc(C(C)C)cc1N1CCN(c2cnccn2)CC1` [Compound 15] was tested. Which IC50 did it give?
A: 54 µM

Q: For `Cc1c(F)cc(C(=O)Nc2ccc(C(C)C)cc2N2CCN(c3cnccn3)CC2)cc1F` [Compound 16], which IC50 is on record?
A: 5.6 µM

Q: With `Cc1ccc(C(=O)Nc2ccc(C(C)C)cc2N2CCN(c3cnccn3)CC2)cn1` [Compound 17] as the molecule, how does the IC50 read?
A: 14 µM

Q: Which IC50 does the source give for `Cc1cncc(C(=O)Nc2ccc(C(C)C)cc2N2CCN(c3cnccn3)CC2)c1` [Compound 18] here?
A: 2.3 µM

Q: Which IC50 does the source give for `CC(C)c1ccc(NC(=O)c2cnc3ccccc3c2)c(N2CCN(c3cnccn3)CC2)c1` [Compound 19] here?
A: 6.7 µM

Q: `Cc1ncsc1C(=O)Nc1ccc(C(C)C)cc1N1CCN(c2cnccn2)CC1` [Compound 20] was tested. Which IC50 did it give?
A: 0.58 µM

Q: `Cc1nc(Br)sc1C(=O)Nc1ccc(C(C)C)cc1N1CCN(c2cnccn2)CC1` [Compound 21] was tested. Which IC50 did it give?
A: 3 µM

Q: Which IC50 does the source give for `Cc1nc(N(C)C)sc1C(=O)Nc1ccc(C(C)C)cc1N1CCN(c2cnccn2)CC1` [Compound 22] here?
A: 10 µM

Q: How did the IC50 turn out when `CC(C)c1ccc(NC(=O)c2ccsc2)c(N2CCN(c3cnccn3)CC2)c1` [Compound 23] was run?
A: 7 µM

Q: For `CC(C)c1ccc(NC(=O)c2cnc3[nH]ccc3c2)c(N2CCN(c3cnccn3)CC2)c1` [Compound 24], which IC50 is on record?
A: > 20 µM

Q: With `CC(C)c1ccc(NC(=O)c2ccc(C(F)(F)F)nc2)c(N2CCN(c3cnccn3)CC2)c1` [Compound 25] as the molecule, how does the IC50 read?
A: 2.3 µM

Q: Which IC50 does the source give for `CC(C)c1ccc(NC(=O)c2cnccc2C(F)(F)F)c(N2CCN(c3cnccn3)CC2)c1` [Compound 26] here?
A: > 20 µM

Q: For `Cc1oncc1C(=O)Nc1ccc(C(C)C)cc1N1CCN(c2cnccn2)CC1` [Compound 27], which IC50 is on record?
A: 13 µM

Q: `Cc1ncoc1C(=O)Nc1ccc(C(C)C)cc1N1CCN(c2cnccn2)CC1` [Compound 28] was tested. Which IC50 did it give?
A: 14 µM

Q: `Cc1occc1C(=O)Nc1ccc(C(C)C)cc1N1CCN(c2cnccn2)CC1` [Compound 29] was tested. Which IC50 did it give?
A: 15 µM

Q: How did the IC50 turn out when `CC(C)c1ccc(NC(=O)C2CCOCC2)c(N2CCN(c3cnccn3)CC2)c1` [Compound 31] was run?
A: > 20 µM

Q: `CC(C)c1ccc(NC(=O)C2CCCNC2)c(N2CCN(c3cnccn3)CC2)c1` (stereo not drawn) [Compound 32] was tested. Which IC50 did it give?
A: > 200 µM

Q: For `CC(C)c1ccc(NC(=O)c2ccccn2)c(N2CCN(c3cnccn3)CC2)c1` [Compound 33], which IC50 is on record?
A: > 20 µM

Q: Which IC50 does the source give for `CC(C)c1ccc(NC(=O)c2cncnc2)c(N2CCN(c3cnccn3)CC2)c1` [Compound 34] here?
A: > 20 µM

Q: With `CC(C)c1ccc(NC(=O)c2ccnnc2)c(N2CCN(c3cnccn3)CC2)c1` [Compound 35] as the molecule, how does the IC50 read?
A: > 20 µM

Q: With `Cc1cnc(C(=O)Nc2ccc(C(C)C)cc2N2CCN(c3cnccn3)CC2)cn1` [Compound 36] as the molecule, how does the IC50 read?
A: > 20 µM

Q: `CC(C)c1ccc(NC(=O)c2ccnc(NC(=O)C(C)(C)C)c2)c(N2CCN(c3cnccn3)CC2)c1` [Compound 37] was tested. Which IC50 did it give?
A: > 20 µM

Q: Which IC50 does the source give for `Cc1nocc1C(=O)Nc1ccc(C(C)C)cc1N1CCN(c2cnccn2)CC1` [Compound 38] here?
A: 13 µM

Q: `Cc1n[nH]cc1C(=O)Nc1ccc(C(C)C)cc1N1CCN(c2cnccn2)CC1` [Compound 39] was tested. Which IC50 did it give?
A: > 200 µM

Q: For `Cc1cncc(N2CCN(c3cc(C(C)C)ccc3NC(=O)c3cccnc3)CC2)n1` [Compound 40], which IC50 is on record?
A: 0.5 µM

Q: How did the IC50 turn out when `CC(C)c1ccc(NC(=O)c2cccnc2)c(N2CCN(c3ccncn3)CC2)c1` [Compound 41] was run?
A: 0.56 µM

Q: `Cc1nccc(N2CCN(c3cc(C(C)C)ccc3NC(=O)c3cccnc3)CC2)n1` [Compound 42] was tested. Which IC50 did it give?
A: 0.16 µM

Q: With `CC(C)c1ccc(NC(=O)c2cccnc2)c(N2CCN(c3ncccn3)CC2)c1` [Compound 43] as the molecule, how does the IC50 read?
A: 2.3 µM

Q: Which IC50 does the source give for `Cc1ccnc(N2CCN(c3cc(C(C)C)ccc3NC(=O)c3cccnc3)CC2)n1` [Compound 44] here?
A: 1.5 µM

Q: Which IC50 does the source give for `Cc1nccnc1N1CCN(c2cc(C(C)C)ccc2NC(=O)c2cccnc2)CC1` [Compound 45] here?
A: 3.9 µM

Q: With `Cc1cnc(C)c(N2CCN(c3cc(C(C)C)ccc3NC(=O)c3cccnc3)CC2)n1` [Compound 46] as the molecule, how does the IC50 read?
A: 140 µM

Q: `CC(C)c1ccc(NC(=O)c2cccnc2)c(N2CCN(c3nccs3)CC2)c1` [Compound 47] was tested. Which IC50 did it give?
A: 2.5 µM

Q: For `Cc1csc(N2CCN(c3cc(C(C)C)ccc3NC(=O)c3cccnc3)CC2)n1` [Compound 48], which IC50 is on record?
A: 15 µM

Q: Which IC50 does the source give for `Cc1cnc(N2CCN(c3cc(C(C)C)ccc3NC(=O)c3cccnc3)CC2)s1` [Compound 49] here?
A: 3.9 µM

Q: With `CC(C)c1ccc(NC(=O)c2cccnc2)c(N2CCN(c3ccccn3)CC2)c1` [Compound 51] as the molecule, how does the IC50 read?
A: 7.3 µM

Q: `CC(C)c1ccc(NC(=O)c2cccnc2)c(N2CCN(C(=O)Nc3ccccc3)CC2)c1` [Compound 52] was tested. Which IC50 did it give?
A: > 100 µM

Q: With `CC(C)c1ccc(NC(=O)c2cccnc2)c(N2CCN(C(=O)OC(C)(C)C)CC2)c1` [Compound 53] as the molecule, how does the IC50 read?
A: > 200 µM

Q: For `CC(C)c1ccc(NC(=O)c2cccnc2)c(N2CCN(S(C)(=O)=O)CC2)c1` [Compound 54], which IC50 is on record?
A: > 200 µM

Q: With `CC(C)c1ccc(NC(=O)c2cccnc2)c(N2CCN(C(=O)CN(C)C)CC2)c1` [Compound 55] as the molecule, how does the IC50 read?
A: > 200 µM

Q: `CNCC(=O)N1CCN(c2cc(C(C)C)ccc2NC(=O)c2cccnc2)CC1` [Compound 56] was tested. Which IC50 did it give?
A: > 200 µM

Q: Which IC50 does the source give for `Cc1ncccc1C(=O)Nc1ccc(C(C)C)cc1N1CCN(c2ccncn2)CC1` [Compound 57] here?
A: 0.1 µM

Q: `CSCc1nccc(N2CCN(c3cc(C(C)C)ccc3NC(=O)c3cccnc3C)CC2)n1` [Compound 58] was tested. Which IC50 did it give?
A: 0.027 µM

Q: How did the IC50 turn out when `Cc1ncccc1C(=O)Nc1ccc(C(C)C)cc1N1CCN(c2ncnc3ccsc23)CC1` [Compound 59] was run?
A: 0.014 µM

Q: Which IC50 does the source give for `Cc1ncccc1C(=O)Nc1ccc(C(C)C)cc1N1CCN(c2ncnc3[nH]ccc23)CC1` [Compound 60] here?
A: 0.032 µM

Q: Which IC50 does the source give for `Cc1ncccc1C(=O)Nc1ccc(C(C)C)cc1N1CCN(c2cncc(C3CC3)n2)CC1` [Compound 61] here?
A: 1 µM

Q: How did the IC50 turn out when `Cc1ncccc1C(=O)Nc1ccc(C(C)C)cc1N1CCN(c2cncc(-c3ccccc3)n2)CC1` [Compound 62] was run?
A: 17 µM
